Laboratory results taken from patent publication US6417222B1, “[2-substituted-5-[3-thienyl)-benzyl]-2- ([2-isopropoxy-5-fluoro]-phenyoxy)-ethyl]-amine derivatives, method for the production and use thereof as medicaments” (Pierre Fabre Medicament, priority 1999, dated 2002).

Tests used:
[1] = target: T1, D2 receptors (Rattus norvegicus, UniProt P61169); experiment: Inhibition of the behavior induced by methylphenidate (antidopaminergic activity in vivo); details: rats, oral administration, read-out: Normalization ED50
T1 construct: from tissue; host or cells: whole living rat (central nervous system)
T1 sequence (P61169 whole entry): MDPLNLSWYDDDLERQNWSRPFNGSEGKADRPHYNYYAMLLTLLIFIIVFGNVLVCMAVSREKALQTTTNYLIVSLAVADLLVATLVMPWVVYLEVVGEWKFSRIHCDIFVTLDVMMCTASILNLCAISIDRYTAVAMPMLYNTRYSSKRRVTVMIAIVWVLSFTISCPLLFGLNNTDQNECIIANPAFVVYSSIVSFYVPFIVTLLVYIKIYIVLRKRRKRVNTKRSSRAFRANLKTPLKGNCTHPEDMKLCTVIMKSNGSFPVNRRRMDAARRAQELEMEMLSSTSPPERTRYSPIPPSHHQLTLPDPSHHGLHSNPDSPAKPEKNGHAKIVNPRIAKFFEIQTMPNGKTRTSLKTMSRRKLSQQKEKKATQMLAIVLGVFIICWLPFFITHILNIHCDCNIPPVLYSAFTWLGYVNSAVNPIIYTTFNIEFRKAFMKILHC
Excerpt: (§1) 2—Evaluation of the antagonist activity of the D2 receptors and of the cataleptogenic effects of the compounds of the invention in vivo

[2] = target: receptors of the D2 type (Homo sapiens, UniProt P14416); experiment: Affinity for D2 receptors by displacement of (3H) YM-09151-2; type: binding; details: mean of at least 3 experiments, read-out: D2 pKi (converted)
Chain of receptors of the D2 type (P14416 whole entry): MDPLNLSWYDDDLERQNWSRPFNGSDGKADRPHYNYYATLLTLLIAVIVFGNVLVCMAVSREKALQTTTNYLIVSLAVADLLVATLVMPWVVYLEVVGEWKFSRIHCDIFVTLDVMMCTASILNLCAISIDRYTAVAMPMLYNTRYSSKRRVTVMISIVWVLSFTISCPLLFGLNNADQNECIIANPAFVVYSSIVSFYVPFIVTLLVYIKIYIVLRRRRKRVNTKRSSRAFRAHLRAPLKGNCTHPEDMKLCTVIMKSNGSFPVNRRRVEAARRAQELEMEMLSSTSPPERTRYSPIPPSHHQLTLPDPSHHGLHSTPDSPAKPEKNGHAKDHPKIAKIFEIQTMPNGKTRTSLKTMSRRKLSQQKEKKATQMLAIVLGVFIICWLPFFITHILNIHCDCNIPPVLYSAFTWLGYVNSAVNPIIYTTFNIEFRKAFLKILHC
Procedure: 1—Measurement of the affinity of the compounds of the invention for the D2 receptors.
The affinity of the compounds of the invention for the receptors of the D2 type was determined by measuring the displacement of (^3H) YM-09151-2 (NET-1004 70-87 Ci/mmol), according to the method described in Naunyn-Schimiedeberg's Arch. Pharmacol. Methods, 1985, 329, 333. The pKi values (−log Ki) are given in the form of a mean ±SEM of at least 3 experiments.

[3] = Cataleptogenic power (extrapyramidal side effects); details: rat, in vivo; rats, oral administration; read-out: Catalepsy ED50
Excerpt: as §1
The test for evaluating the propensity of the products of the invention to cause side effects of extrapyramidal order is based on their cataleptogenic power, measured in rats, according to the method described in Eur. J. Pharmacol. 1996, 313, 25.

In the case of `Cc1nc2n(c(=O)c1CCN1CCC(c3noc4cc(F)ccc34)CC1)CCCC2` [Risperidone, reference compound], the ED50 [1] was 6.5 mg/kg.
With `CC(C)Oc1ccc(F)cc1OCCNCc1cccc(-c2ccsc2)c1` [la, [3-(3-Thienyl)benzyl]-[2-([5-fluoro-2-isopropoxy]-phenoxy)ethyl]amine] the Ki [2] was 0.355 nM, the ED50 [1] was 0.7 mg/kg and the ED50 [3] was > 40 mg/kg.
